Reference: PubChem BioAssay (NCI)
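Method: 48-hour compound exposure of cells in 96-well plates, five concentrations, linear interpolation of endpoints. Definition used: TGI = concentration required for complete inhibition of growth.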

Tests used:
Assay in all cases: NCI anticancer screen, dose series, 48 h
LOX IMVI melanoma = system: LOX IMVI melanoma
UO-31 renal = system: UO-31 renal
NCI-H460 lung = system: NCI-H460 lung
SN12C renal = system: SN12C renal
ACHN renal = system: ACHN renal
HT29 colon = system: HT29 colon
PC-3 prostate = system: PC-3 prostate
MDA-MB-231 breast = system: MDA-MB-231 breast
DU-145 prostate = system: DU-145 prostate
OVCAR-8 ovarian = system: OVCAR-8 ovarian
SF-268 CNS = system: SF-268 CNS
HOP-62 NSCLC = system: HOP-62 NSCLC
SF-539 CNS = system: SF-539 CNS
KM12 colon = system: KM12 colon
M14 melanoma = system: M14 melanoma
OVCAR-5 ovarian = system: OVCAR-5 ovarian
HS 578T breast = system: HS 578T breast
CAKI-1 renal = system: CAKI-1 renal
K-562 leukemia = system: K-562 leukemia
SF-295 CNS = system: SF-295 CNS
HOP-92 NSCLC = system: HOP-92 NSCLC
EKVX NSCLC = system: EKVX NSCLC
SK-MEL-2 melanoma = system: SK-MEL-2 melanoma
MCF7 breast = system: MCF7 breast
COLO 205 colon = system: COLO 205 colon
HCC-2998 colon = system: HCC-2998 colon
CCRF-CEM leukemia = system: CCRF-CEM leukemia
OVCAR-4 ovarian = system: OVCAR-4 ovarian
RPMI-8226 leukemia = system: RPMI-8226 leukemia
A549 NSCLC = system: A549 NSCLC
MDA-MB-435 = system: MDA-MB-435
HCT-116 colon = system: HCT-116 colon
IGROV1 ovarian = system: IGROV1 ovarian
OVCAR-3 ovarian = system: OVCAR-3 ovarian
NCI-H226 lung = system: NCI-H226 lung
HL-60(TB) leukemia = system: HL-60(TB) leukemia
U251 CNS = system: U251 CNS
TK-10 renal = system: TK-10 renal
UACC-257 melanoma = system: UACC-257 melanoma
SK-OV-3 ovarian = system: SK-OV-3 ovarian
NCI-H23 lung = system: NCI-H23 lung
BT-549 breast = system: BT-549 breast
NCI/ADR-RES ovarian = system: NCI/ADR-RES ovarian
MALME-3M melanoma = system: MALME-3M melanoma
MOLT-4 leukemia = system: MOLT-4 leukemia
MDA-N = system: MDA-N
SNB-19 CNS = system: SNB-19 CNS
HCT-15 colon = system: HCT-15 colon
SK-MEL-5 melanoma = system: SK-MEL-5 melanoma
T-47D breast = system: T-47D breast
UACC-62 melanoma = system: UACC-62 melanoma
SW-620 colon = system: SW-620 colon
RXF 393 renal = system: RXF 393 renal
A498 renal = system: A498 renal
786-0 renal = system: 786-0 renal
NCI-H522 lung = system: NCI-H522 lung
SK-MEL-28 melanoma = system: SK-MEL-28 melanoma
SNB-75 CNS = system: SNB-75 CNS

O=C(O)c1ccc(C=C2Sc3ccccc3S2)cc1
TGI (LOX IMVI melanoma): > 100 µM
TGI (UO-31 renal): > 100 µM
TGI (NCI-H460 lung): > 100 µM
TGI (SN12C renal): > 100 µM
TGI (ACHN renal): 74.2 µM
TGI (HT29 colon): > 100 µM
TGI (PC-3 prostate): > 100 µM
TGI (MDA-MB-231 breast): > 100 µM
TGI (DU-145 prostate): > 100 µM
TGI (OVCAR-8 ovarian): > 100 µM
TGI (SF-268 CNS): > 100 µM
TGI (HOP-62 NSCLC): > 100 µM
TGI (SF-539 CNS): > 100 µM
TGI (KM12 colon): > 100 µM
TGI (M14 melanoma): > 100 µM
TGI (OVCAR-5 ovarian): > 100 µM
TGI (HS 578T breast): > 100 µM
TGI (CAKI-1 renal): > 100 µM
TGI (K-562 leukemia): > 100 µM
TGI (SF-295 CNS): > 100 µM
TGI (HOP-92 NSCLC): > 100 µM
TGI (EKVX NSCLC): > 100 µM
TGI (SK-MEL-2 melanoma): > 100 µM
TGI (MCF7 breast): > 100 µM
TGI (COLO 205 colon): > 100 µM
TGI (HCC-2998 colon): 42.5 µM
TGI (CCRF-CEM leukemia): > 100 µM
TGI (OVCAR-4 ovarian): > 100 µM
TGI (RPMI-8226 leukemia): > 100 µM
TGI (A549 NSCLC): > 100 µM
TGI (MDA-MB-435): 44.9 µM
TGI (HCT-116 colon): > 100 µM
TGI (IGROV1 ovarian): > 100 µM
TGI (OVCAR-3 ovarian): 83 µM
TGI (NCI-H226 lung): > 100 µM
TGI (HL-60(TB) leukemia): > 100 µM
TGI (U251 CNS): > 100 µM
TGI (TK-10 renal): > 100 µM
TGI (UACC-257 melanoma): > 100 µM
TGI (SK-OV-3 ovarian): > 100 µM
TGI (NCI-H23 lung): > 100 µM
TGI (BT-549 breast): > 100 µM
TGI (NCI/ADR-RES ovarian): > 100 µM
TGI (MALME-3M melanoma): > 100 µM
TGI (MOLT-4 leukemia): > 100 µM
TGI (MDA-N): 81.2 µM
TGI (SNB-19 CNS): > 100 µM
TGI (HCT-15 colon): > 100 µM
TGI (SK-MEL-5 melanoma): > 100 µM
TGI (T-47D breast): > 100 µM
TGI (UACC-62 melanoma): 95.2 µM
TGI (SW-620 colon): > 100 µM
TGI (RXF 393 renal): > 100 µM
TGI (A498 renal): 39.6 µM
TGI (786-0 renal): > 100 µM
TGI (NCI-H522 lung): > 100 µM

CCOC(=O)C1=CC(C)(C(=O)OCC)Nc2c(nc(SC)[nH]c2=O)N1 (configuration not stated)
TGI (LOX IMVI melanoma): > 10 µM
TGI (UO-31 renal): > 10 µM
TGI (NCI-H460 lung): > 10 µM
TGI (SN12C renal): > 10 µM
TGI (ACHN renal): > 10 µM
TGI (HT29 colon): > 10 µM
TGI (PC-3 prostate): > 10 µM
TGI (MDA-MB-231 breast): > 10 µM
TGI (DU-145 prostate): > 10 µM
TGI (OVCAR-8 ovarian): > 10 µM
TGI (SF-268 CNS): > 10 µM
TGI (HOP-62 NSCLC): > 10 µM
TGI (SF-539 CNS): > 10 µM
TGI (SK-MEL-28 melanoma): > 10 µM
TGI (KM12 colon): > 10 µM
TGI (M14 melanoma): > 10 µM
TGI (OVCAR-5 ovarian): > 10 µM
TGI (HS 578T breast): > 10 µM
TGI (CAKI-1 renal): > 10 µM
TGI (K-562 leukemia): > 10 µM
TGI (SF-295 CNS): > 10 µM
TGI (HOP-92 NSCLC): > 10 µM
TGI (EKVX NSCLC): > 10 µM
TGI (SK-MEL-2 melanoma): > 10 µM
TGI (MCF7 breast): > 10 µM
TGI (COLO 205 colon): > 10 µM
TGI (HCC-2998 colon): > 10 µM
TGI (CCRF-CEM leukemia): > 10 µM
TGI (OVCAR-4 ovarian): > 10 µM
TGI (RPMI-8226 leukemia): > 10 µM
TGI (A549 NSCLC): > 10 µM
TGI (MDA-MB-435): > 10 µM
TGI (HCT-116 colon): > 10 µM
TGI (IGROV1 ovarian): > 10 µM
TGI (OVCAR-3 ovarian): > 10 µM
TGI (NCI-H226 lung): > 10 µM
TGI (SNB-75 CNS): > 10 µM
TGI (U251 CNS): > 10 µM
TGI (TK-10 renal): > 10 µM
TGI (UACC-257 melanoma): > 10 µM
TGI (SK-OV-3 ovarian): > 10 µM
TGI (NCI-H23 lung): > 10 µM
TGI (BT-549 breast): > 10 µM
TGI (NCI/ADR-RES ovarian): > 10 µM
TGI (MALME-3M melanoma): > 10 µM
TGI (MOLT-4 leukemia): > 10 µM
TGI (MDA-N): > 10 µM
TGI (SNB-19 CNS): > 10 µM
TGI (HCT-15 colon): > 10 µM
TGI (SK-MEL-5 melanoma): > 10 µM
TGI (T-47D breast): > 10 µM
TGI (SW-620 colon): > 10 µM
TGI (RXF 393 renal): > 10 µM
TGI (A498 renal): > 10 µM
TGI (786-0 renal): > 10 µM
TGI (NCI-H522 lung): > 10 µM

C/C=C1/C[C@@H](C)[C@@](C)(O)C(=O)OCC2=CC[N+]3([O-])CC[C@@H](OC1=O)[C@@H]23 (some centres not stated)
TGI (LOX IMVI melanoma): > 100 µM
TGI (UO-31 renal): > 100 µM
TGI (NCI-H460 lung): > 100 µM
TGI (SN12C renal): > 100 µM
TGI (ACHN renal): > 100 µM
TGI (HT29 colon): > 100 µM
TGI (PC-3 prostate): > 100 µM
TGI (MDA-MB-231 breast): > 100 µM
TGI (DU-145 prostate): > 100 µM
TGI (OVCAR-8 ovarian): > 100 µM
TGI (SF-268 CNS): > 100 µM
TGI (SF-539 CNS): > 100 µM
TGI (SK-MEL-28 melanoma): > 100 µM
TGI (KM12 colon): > 100 µM
TGI (M14 melanoma): > 100 µM
TGI (OVCAR-5 ovarian): > 100 µM
TGI (HS 578T breast): > 100 µM
TGI (CAKI-1 renal): > 100 µM
TGI (K-562 leukemia): > 100 µM
TGI (SF-295 CNS): > 100 µM
TGI (HOP-92 NSCLC): > 100 µM
TGI (EKVX NSCLC): > 100 µM
TGI (SK-MEL-2 melanoma): > 100 µM
TGI (MCF7 breast): > 100 µM
TGI (COLO 205 colon): > 100 µM
TGI (HCC-2998 colon): > 100 µM
TGI (CCRF-CEM leukemia): > 100 µM
TGI (OVCAR-4 ovarian): > 100 µM
TGI (A549 NSCLC): > 100 µM
TGI (MDA-MB-435): > 100 µM
TGI (HCT-116 colon): > 100 µM
TGI (IGROV1 ovarian): > 100 µM
TGI (OVCAR-3 ovarian): > 100 µM
TGI (NCI-H226 lung): > 100 µM
TGI (HL-60(TB) leukemia): > 100 µM
TGI (SNB-75 CNS): > 100 µM
TGI (U251 CNS): > 100 µM
TGI (TK-10 renal): > 100 µM
TGI (UACC-257 melanoma): > 100 µM
TGI (SK-OV-3 ovarian): > 100 µM
TGI (NCI-H23 lung): > 100 µM
TGI (BT-549 breast): > 100 µM
TGI (NCI/ADR-RES ovarian): > 100 µM
TGI (MALME-3M melanoma): > 100 µM
TGI (MOLT-4 leukemia): > 100 µM
TGI (MDA-N): > 100 µM
TGI (SNB-19 CNS): > 100 µM
TGI (HCT-15 colon): > 100 µM
TGI (SK-MEL-5 melanoma): > 100 µM
TGI (T-47D breast): > 100 µM
TGI (UACC-62 melanoma): > 100 µM
TGI (SW-620 colon): > 100 µM
TGI (A498 renal): > 100 µM
TGI (786-0 renal): > 100 µM
TGI (NCI-H522 lung): > 100 µM
